row,melting point [°C],SMILES
1,130 to 132,CCCCCCC(=O)NCc1cccc2c1C(=O)N(C1CCC(=O)NC1=O)C2=O (stereo unspecified)
2,173 to 175,CCCc1nnc2c(Cl)nc3ccccc3n12
3,158 to 160,CC(C)CN1C(=O)C2CC(c3ccc(N)cc3)(C2)C1=O
4,272 to 276,O=c1[nH]c2ccc(S(=O)(=O)N(CCO)CCO)cc2[nH]c1=O
5,180 to 181,Clc1ncc(-c2ccnc(N3CCOCC3)n2)c2ccccc12
6,162 to 163,Clc1ccc(CSc2nnc(-c3ccc4occc4c3)o2)cc1
7,135 to 137,O=S(=O)(c1ccc(F)cc1)n1ccc2ccccc21
8,83 to 108,CC(=O)SCCNC(=O)CCNC(=O)OCc1ccccc1
9,242,Cc1c(C(=O)Nc2ccc(N3CCC(N4CCOCC4)CC3)c(C#N)c2)cnn1-c1ccc(Cl)c(Cl)c1
10,78,CN(C(=O)CBr)c1ccc(Cl)cc1Cc1ccccc1
11,130 to 134,CC(C)(C#N)ON1C(C)(C)CNC(=O)CC1(C)C
12,155 to 156,CC(=O)NCC1CC(c2ccc(-n3ccnc3)c(F)c2)=NO1 (stereo unspecified)
13,53 to 54,CC(Br)=C(c1ccc(F)cc1)c1ccc(F)cc1
14,52,O=c1cc(-c2ccc(C(F)(F)F)cc2)cc(C(F)(F)F)o1
15,177,CC(C)(C)n1nc(-c2ccoc2)c(C(N)=O)c1N
16,87 to 88,CCOCCc1ccc(OCCN(C(=O)n2ccnc2)c2ncnc(C)c2Cl)c(C)c1
17,101 to 107,CCCCCCCCCCCCc1cc(NC(=O)Nc2c(C(C)C)cccc2C(C)C)no1
18,143 to 144,O=C(c1ccc(Cn2cnc3ccncc32)cc1)N1CCOCC1

row,melting point [°C],SMILES
1,232,CC=CC(=O)Nc1n[nH]c2cc(Br)ccc12
2,102 to 104,COC(=O)c1ccc(OC)c2cc(OC)ccc12
3,134 to 136,O=[N+]([O-])c1cc(Cl)c(Cl)cc1NC1CCC(O)C1O (stereo unspecified)
4,225 to 227,O=C1CC(c2cccc(-n3ccnc3)c2)=Nc2cc(N3CCC(OCCO)CC3)c(-c3ccc(F)cc3)cc2N1
5,92 to 93,Nc1ccc(-c2cccnc2)c(C(F)(F)F)c1
6,168 to 170,Clc1ccc2c(c1)N=C(NCCn1ccnc1)c1ccccc1N2
7,139 to 142,O=C=Nc1ccc(OC(=O)COCCOCC(=O)Oc2ccc(N=C=O)cc2)cc1
8,73 to 74,CCOC(=O)c1ccc(NCCCOc2ccccc2)cc1
9,202 to 204,CC(C)C(NC(=O)OCc1ccccn1)C(=O)NC(Cc1ccccc1)C(O)C(O)C(Cc1ccccc1)NC(=O)OC(C)(C)C (stereo unspecified)
10,200 to 201,c1ccc(Cc2nc(C3CCCCC3)oc2CN2CCc3c([nH]c4ccccc34)C2)cc1
11,> 200,Cc1cc(=O)n(Cc2ccccc2)[nH]c1=O
12,147 to 148,Cc1ccc(-c2ccccc2NC(=N)N(C)C)cc1
13,132 to 133,COc1cc(OCC(=O)O)cc2c1C(Cl)=CC1(CCCCC1)O2
14,177,COC1CC(n2cc(C=CBr)c(=O)[nH]c2=O)OC1CF (stereo unspecified)
15,123 to 135,Cc1cc(C(=O)N2CCN(c3c(C#N)c(=O)n(Cc4ccc(F)cc4)c4ccccc34)CC2)no1
16,55 to 57,CCCCCCCCCCOc1cc(OCCCCCCCCCC)cc(N(CC(=O)OCc2ccccc2)CC(=O)OCc2ccccc2)c1
17,> 320,CN(C)c1ccc2c(c1)O/C(=C1/Oc3cc(N(C)C)ccc3C1=O)C2=O
18,97 to 99,CN(CCCN)CCCNc1ccc2ncn3c4ccccc4c(=O)c1c23

# Further lines, the molecule ahead of its results:
row,SMILES,melting point [°C]
1,CC(SC1COC(c2ccc(C(=O)Nc3ccc(C#N)cc3)cc2F)OC1)C(O)(Cn1cncn1)c1ccc(F)cc1F (stereo unspecified),110
2,CS(=O)(=O)c1ccc(Oc2cc(OC3CCOCC3)c3[nH]c(C4=NCC(CC(=O)NCCO)S4)cc3c2)cn1 (stereo unspecified),157 to 158
3,O=C(Nc1ccc(Cl)cc1)/C(Br)=C/Br,99.5 to 100
4,CC(=O)OCC1OC(n2cc(Cc3ccc(OC(F)(F)F)cc3)c3c(Cl)cccc32)C(OC(C)=O)C(OC(C)=O)C1OC(C)=O (stereo unspecified),193 to 194
5,CCCOc1ccc(-c2ccc(OCC(CN3C(=O)NC(C)(C)C3=O)N(O)C=O)cc2)cc1 (stereo unspecified),158 to 160
6,O=C1C=C(NC(=O)C(=O)c2cn(Cc3ccc(Cl)cc3)c3ccccc23)CS1,248 to 250
7,CCn1ncc(-c2ccc3c(c2)c(C2=CCN(CCN4CCNC4=O)CC2)cn3-c2ccc(F)cc2)n1,143 to 145
8,CNc1nc(Br)cc(Sc2ccccc2)n1,122 to 124
9,CCOC(=O)C(C)(C)NC(=O)C(Br)c1ccccc1 (stereo unspecified),81 to 83
10,Cc1oc(C)c(C(=O)Nc2ccc(Cl)c(C(=O)OC(C)C)c2)c1C,83 to 85
11,N#Cc1ccc(N(CCOc2ccc(OCc3ccccc3)c(Br)c2)n2cnnc2)cc1,163 to 166
12,Nc1ccc2[nH]c(=O)ccc2c1,116 to 118
13,CCCCOc1cc2c(Cl)c(C#N)cnc2cc1OCCOC,128 to 130
14,Cc1cn(C)c2c1Nc1ccccc1NC2=O,184
15,COc1ccc(N2CCN(c3ncc(-n4cn[nH]c4=O)cn3)CC2)cc1,272
16,Cc1nnc2n1-c1ccc([N+](=O)[O-])cc1C(c1ccccc1F)=NC2(C)C,195
17,O=C(N[C@H](Cc1ccccc1)C(=O)O)C1CCCC1,102 to 104
18,COc1cc(OCc2nc(-c3ccco3)oc2C)ccc1CO,117 to 118
19,CCCCCCc1cc(-c2cccs2)n[nH]1,53 to 55
20,CCn1c2c(c3ccccc31)Cc1c(C(=O)OC)c(C(=O)OC)c(C)n1C2,202 to 203
21,NC(=O)C(=O)NC(C(=O)O)c1ccccc1 (stereo unspecified),193
22,Cc1ccc(-c2ccc(Cl)cc2)cc1C#CC(C)(C)OCC(=O)O,125

row,SMILES,melting point [°C]
1,CON=C(OC)C(=O)c1nccn1Cc1ccccc1,55 to 58
2,c1ccc(Nc2ccnc3cn[nH]c23)cc1,222 to 224
3,Cc1cc(=O)n2c3c(cc(C(O)(C(F)(F)F)C(F)(F)F)cc13)CCC2,295 to 296
4,COC(=O)c1cc(NC(=O)C(N)c2ccc3c(c2)C(C)(C)CCC3(C)C)cn1C (stereo unspecified),122 to 124
5,CCc1cccc2c3c([nH]c12)C(CC)(CC(N)=O)OCC3 (stereo unspecified),189 to 190
6,CCC(Cc1ccc(OC)c(S(N)(=O)=O)c1)NC(=O)C(F)(F)F (stereo unspecified),189 to 192
7,Clc1cccc(CCC2(Cn3ccnc3)SCCS2)c1,224 to 227
8,CCNC(=O)NC1CCCc2ccccc21 (stereo unspecified),178 to 179
9,Cc1ccc(NC(=O)OC2CN3CCC2CC3)cc1 (stereo unspecified),186 to 188
10,CCOP(=O)(/C=C/c1cn(-c2ccccc2)nc1OCc1ccc(OCc2nc(-c3ccc(C(=O)O)s3)oc2C)c(OC)c1)OCC,165 to 166
11,Fc1cc(CC2(Cc3ccnc(F)c3)c3cccnc3-c3ncccc32)ccn1,239 to 241
12,CCCc1ncc(CO)c(NCc2ccc(-c3ccccc3-c3nnnn3C(c3ccccc3)(c3ccccc3)c3ccccc3)cc2)n1,134 to 137
13,COc1ccccc1OCCCCCOc1ccc(C#N)cc1,61 to 63
14,O=C1CCCCCC1=CC(=O)c1ccccc1,91 to 92
15,COc1cc(/C=C/C(=O)/C=C/c2cc(OC)c(OCCO)c(OC)c2)cc(OC)c1OCCO,133 to 135
16,CCCCc1nc2cc(C)c(C)cc2n1Cc1ccc(C(=O)O)cc1,220
17,CC(C)c1cc2ncnn2nc1SCCCCl,82 to 83
18,CN(C)C=Nc1c(Cl)cc(N=Cc2ccc(-c3ccccc3)cc2)cc1Cl,108 to 110
19,COc1cc(OCc2cccnc2)ccc1/C=C/c1cc(/C=C/c2cccc3cc[nH]c23)n[nH]1,122 to 129
20,Cc1ccccc1-c1cc2cnc(N)nc2n(C)c1=O,239
21,CC(=O)N[C@@H](Cc1cscn1)C(=O)O,186
22,OC(CN1CCN(Cc2ccc(F)cc2)CC1)Cn1c2ccccc2c2cc(-c3ccccc3)ccc21 (stereo unspecified),188

row,SMILES,melting point [°C]
1,CN1C(=O)Cc2cc(C3=NNC(=O)CC3)ccc21,261 to 264
2,CCCCN(CCCC)p1oc2c(C(C)(C)C)cc(C(C)(C)C)cc2c2cc(C(C)(C)C)cc(C(C)(C)C)c2o1,140
3,COCOc1c(NC(=O)N(c2ccccc2)C2CCC(NC(=O)OCc3ccccc3)CC2)cc(OC)cc1C(C)(C)C (stereo unspecified),145 to 154
4,Cc1ccc2c(n1)NC(C)C(=O)N2 (racemic),203 to 205
5,CC(C)(C)OC(=O)CCc1ccnc(-c2nc(=O)c3ccc(Br)cc3s2)c1,173 to 174
6,COc1ccc2ccc(N3C(=O)c4ccccc4C3CC(=O)C3CCCCC3)nc2n1 (stereo unspecified),140
7,COC(COC(C)=O)C1=CCC2C3CCC4=CC(=O)CCC4(C)C3CCC12C (stereo unspecified),115 to 157
8,O=C(Nc1ccc(Br)cn1)C1=C(O)c2ccccc2N(c2ccccc2)C1,153 to 154
9,CC(C)(C)OC(=O)NCCc1ccc(Oc2cc(C#N)ccn2)cc1,92 to 96
10,COC(=O)c1ccc(CN2C(=O)C3(COc4cc5c(cc43)CCO5)c3ccccc32)cc1 (stereo unspecified),136 to 140
11,CN(C)C=C(C(=O)c1cccc2c1OC(F)(F)O2)C(=O)C1CC1,118 to 119
12,ClCc1ccc(-c2nnc3n2-c2cccnc2Nc2ccccc2-3)cc1,260 to 262
13,CCCc1n[nH]c(=O)n1C,77
14,CCOC(=O)Nc1ccc(OC)nc1,76
15,CC(C)CCCCCCCCCCCCc1ccc(O)cc1O,70
16,CCCCCCCCCCC[C@@H](C[C@@H]1OC(=O)[C@H]1CCCCCC)OC(=O)[C@H](CC(C)C)NC(=O)OCc1ccccc1,43 to 46
17,COc1ccccc1-n1c(-c2sc(Nc3ccccc3)nc2-c2ccccc2)nc2ccccc2c1=O,224 to 225
18,Brc1nc2cncnc2n1Cc1ccccc1,119 to 121
19,CC(=O)n1cccc(O)c1=O,140 to 141
20,CCn1cc(C(=O)O)c(=O)c2ccc(I)cc21,237 to 238
21,Cn1nc(NC(=O)c2ccccc2)c2c(=O)n3c(nc21)SCC3,271 to 272

# Reference: a melting point compilation (Tetko et al.; mined from patent text by program, amines drawn as free bases though some values may be those of a salt)
